Publication PMC5536191 (ACS chemical biology, 2017)
Entries after “also recorded” stand apart in the source; their conditions may differ.

Tests used:
Will-2 cells = assay: H3K27Me3 levels in DLBCL cells; assay type: cell-based
MCF7 cells = assay: H3Cit26 and H3K27Me3 levels after estradiol stimulation; assay type: cell-based
T47D cells [1] = assay: as above; assay type: cell-based
T47D cells [2] = assay type: cell-based
PAD [3] = assay: PAD inhibition by F-Amidine; assay type: biochemical; settings: F-Amidine 1 mM, 15 min
PRC2 = settings: F-Amidine 1 mM
PAD [4] = settings: ref [46]; cited from earlier work
PRC2 complex = assay: PRC2 methyltransferase activity on histone H3 after PAD preincubation; assay type: biochemical, human; settings: PAD preincubation with H3; Figure S1A and B
UTX and JMJD3 = assay: Co-immunoprecipitation with PAD2 in MCF7 nuclear extracts; assay type: binding; settings: MCF7 nuclear extracts post E2 stimulation
ERα = assay: Co-immunoprecipitation of PAD2 and ERα in MCF7 nuclear extracts; assay type: binding; settings: MCF7 nuclear extracts post E2 stimulation

N=C(CF)NCCC[C@H](NC(=O)c1ccc(-c2ccccc2)cc1)c1nc2ccccc2[nH]1 [BB-F-Amidine, N1-[1,4′-Phenyl]benzoyl-N5-(2-fluoro-1-inimoethyl)-1-(1H-benzo[d]imidazole-2-yl)-L-ornithine amide]
H3K27Me3 increase by PAD inhibitor in EZH2 knockdown cells (Will-2 cells; EZH2 knockdown cells treated with PAD inhibitor): attenuated | increase in H3K27Me3 levels (Will-2 cells; PAD inhibitor treatment, DLBCL line (Will-2)): 4 fold

C[C@]12CC[C@@H]3c4ccc(O)cc4CC[C@H]3[C@@H]1CC[C@@H]2O [E2, 17-β-estradiol]
H3K27Me3 level (MCF7 cells; 100 nM, 4 h): modest reduction in H3K27Me3 levels | H3Cit26 signal (MCF7 cells; E2 stimulation, after 2 h): lost | H3K27Me3 level (T47D cells [1]; 100 nM, 1 h): modest reduction in H3K27Me3 levels | H3Cit26 signal (T47D cells [1]; E2 stimulation, after 2 h): greatly reduced

CCN(c1cc(-c2ccc(CN3CCOCC3)cc2)cc(C(=O)NCc2c(C)cc(C)[nH]c2=O)c1C)C1CCOCC1 [EPZ-6438]
effect on H3K27Me3 increase of PAD2 knockdown cells (Will-2 cells; PAD2 knockdown cells treated with EZH2 inhibitor): attenuated | effect on baseline transcription before estradiol stimulation (T47D cells [2]; 5 μM EPZ-6438, 5 days, absence of estradiol): basal transcriptional level is increased relative to control cells; also recorded: increased baseline transcription prior to E2 stimulation

N=C(CF)NCCC[C@H](NC(=O)c1ccccc1)C(N)=O [F-Amidine, N-α-benzoyl-N5-(2-fluoro-1-iminoethyl)-L-ornithine amide]
inhibition of PAD reaction (PAD [3]): completely inhibits the PAD reaction | effect on methyltransferase activity of PRC2 (PRC2): no effect on the methyltransferase activity of PRC2 | PAD inhibition character (PAD [4]): highly selective, irreversible pan-PAD inhibitor

CCOC(=O)CCNc1cc(N2CCc3ccccc3CC2)nc(-c2ccccn2)n1 [GSK-J4]
effect on E2-stimulated transcription of ERα-target genes (e.g. GDNF and KRT13) (T47D cells [2]; 400 nM GSK-J4, 5 days, baseline vs 60 min E2): downregulated

PAD2: Protein Arginine Deiminase type-2
effect on PRC2 catalyzed methylation, time and dose dependence (PRC2 complex): decrease PRC2 catalyzed methylation in a time- and dose-dependent manner | co-immunoprecipitation with UTX and JMJD3 (UTX and JMJD3): co-immunoprecipitates UTX and JMJD3 | co-immunoprecipitation of PAD2 and ERα (ERα): PAD2 and ERα co-immunoprecipitate

PAD4: Protein Arginine Deiminase type-4
effect on PRC2 catalyzed methylation, time and dose dependence (PRC2 complex): decrease PRC2 catalyzed methylation in a time- and dose-dependent manner
